Test results as given in patent US6841684B2, “Imidiazoles having reduced side effects” (Allergan, Inc., priority 1997, dated 2005).
Where a name gives a salt, the structure may show the parent alone. Read-outs that look alike come from different tables or passages of the source.

Assays:
[1] = tested on: conscious cynomolgus monkeys; assay: Cardiovascular side effects (blood pressure, heart rate) after i.v. administration; type: in vivo, cynomolgus monkey; conditions: for Maximum % Decrease From Pretreatment Levels, Heart Rate / Maximum % Decrease From Pretreatment Levels, Mean Arterial Blood Pressure: up to 6 hours, + with * = increase from base levels
Text: Cardiovascular measurements were made in a different group of monkeys using a BP 100S automated sphygmomanometer (Nippon Colin,. Japan).

[2] = target: T1, rat α2B (RNG gene) receptor (Rattus norvegicus, UniProt P19328); assay: RSAT (Receptor Selection and Amplification Technology) assay, alpha 2B; type: cell-based; conditions: ratio of maximal effect to that of standard full agonist oxymetazoline
T1 construct: expressed in transfected cells; host or cells: NIH-3T3 cells, calcium phosphate cotransfection
T1 sequence (P19328 1-453): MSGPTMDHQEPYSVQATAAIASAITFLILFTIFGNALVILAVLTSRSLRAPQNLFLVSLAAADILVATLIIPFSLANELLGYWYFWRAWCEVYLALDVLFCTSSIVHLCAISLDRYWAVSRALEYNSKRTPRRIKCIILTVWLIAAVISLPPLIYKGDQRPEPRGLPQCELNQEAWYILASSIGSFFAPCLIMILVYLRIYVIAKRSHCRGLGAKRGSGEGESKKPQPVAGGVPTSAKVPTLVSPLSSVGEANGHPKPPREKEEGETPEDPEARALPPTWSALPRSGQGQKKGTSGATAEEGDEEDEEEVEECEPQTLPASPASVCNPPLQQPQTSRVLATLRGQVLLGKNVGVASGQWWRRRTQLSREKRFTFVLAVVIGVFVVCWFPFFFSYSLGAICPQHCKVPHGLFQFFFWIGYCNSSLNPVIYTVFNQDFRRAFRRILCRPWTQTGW
Text: This preferential activity can be determined in a variety of functional assays such as Cyclic AMP Production, Shimizu et al, J. Neurochem. […] In the study below, the RSAT assay on cells that have been transiently transfected with the human α2A (c10 gene), rat α2B (RNG gene) and human α2C (c4 gene) receptors was used.
The assay measures a receptor-mediated loss of contact inhibition that results in selective proliferation of receptor-containing cells in a mixed population of confluent cells. The increase in cell number is assessed with an appropriate transfected marker gene such as b-galactosidase, the activity of which can be easily measured in a 96-well format. Receptors that activate the G protein, Gq, elicit this response. Alpha2 receptors, which normally couple to Gi, activate the RSAT response when coexpressed with a hybrid Gq protein that has a Gi receptor recognition domain, called Gq/i5^2.
NIH-3T3 cells are plated at a density of 2×10^6 cells in 15 cm dishes and maintained in Dulbecco's modified Eagle's medium supplemented with 10% calf serum. One day later, cells are cotransfected by calcium phosphate precipitation with mammalian expression plasmids encoding p-SV-b-galactosidase (5-10 mg), receptor (1-2 mg) and G protein (1-2 mg). 40 mg salmon sperm DNA may also be included in the transfection mixture. Fresh media is added on the following day and 1-2 days later, cells are harvested and frozen in 50 assay aliquots. Cells are thawed and 100 ml added to […] aliquots of various concentrations of drugs in triplicate in 96-well dishes. Incubations continue 72-96 hr at 37°. After washing with phosphate-buffered saline, b-galactosidase enzyme activity is determined by adding 200 ml of the chromogenic substrate (consisting of 3.5 mM o-nitrophenyl-b-D-galactopyranoside and 0.5% nonidet P-40 in phosphate buffered saline), incubating overnight at 30° and measuring optical density at 420 nm. The absorbence is a measure of enzyme activity, which depends on cell number and reflects a receptor-mediated cell proliferation. The EC50 and maximal effect of each drug at each alpha2 receptor is determined. The efficacy or intrinsic activity is calculated as a ratio of the maximal effect of the drug to the maximal effect of a standard full agonist for each receptor subtype.

[3] = tested on: conscious cynomolgus monkeys; assay: Sedation score during the IOP experiments; type: in vivo, cynomolgus monkey; design: key to Sedation (0-4): 0=alert, typical vocalization, movement, etc.; 1=calm, less movement; 2=slightly sedated, some vocalization, responsive to stimulation; 3=sedated, no vocalization, some response to stimulation; 4=asleep
Experimental: At the same time, sedation was measured and assessed according to the following score: 0=alert, typical vocalization, movement, etc.; 1=calm, less movement; 2=slightly sedated, some vocalization, responsive to stimulation; 3=sedated, no vocalization, some response to stimulation; 4=asleep.

[4] = tested on: cynomolgus monkeys with sustained elevated IOP; assay: IOP lowering in conscious monkeys, eyes made hypertensive by argon laser photocoagulation; type: in vivo, cynomolgus monkey; conditions: Macaca fascicularis, topical, single 50 μl eye drop, up to 6 hours, read-out: Maximum % Decrease From Pretreatment Levels Hypertensive Eye (IOP); for inhibition in vivo at 1 %: ocular dose 1%
Text: Measurements of IOP were made in fully conscious female cynomolgus monkeys weighing 3-4 kg with sustained elevated IOP that was produced in the right eye by argon laser photocoagulation of the trabecular meshwork. Animals were usable for experiments 2 months following surgery. During the experiments, monkeys sat in specially designed chairs (Primate Products, San Francisco), and were fed orange juice and fruit as needed. A 30R model Digilab pneumatonometer (Alcon, Tex.) was used to measure IOP.
Twenty five μl of an anesthetic (proparacaine) was topically applied to each monkey before IOP measurements to minimize ocular discomfort due to tonometry. Two baseline measurements were made prior to instillation of the drugs, followed by periodic measurements up to 6 hours post-instillation. The test compounds were administered unilaterally as a single 50 μl eye drop; the contralateral eyes received an equal volume of saline.

Row | SMILES | Intrinsic Activity Relative to Oxymetazoline, Alpha 2B [2] | also measured
1 | O=C1c2ccccc2OCC1Cc1c[nH]cn1 (centres unmarked) [Example B-2b, 3-(1H-imidazol-4(5)-ylmethyl)chroman-4-one] | 0.77 | Maximum % Decrease From Pretreatment Levels, Heart Rate ([1]; i.v. 500 μg/kg): 6.4 ± 3.6%; Maximum % Decrease From Pretreatment Levels, Mean Arterial Blood Pressure ([1]; i.v. 500 μg/kg): 5.7 ± 1.4%
2 | Cl.c1ccc2c(c1)CC(Cc1c[nH]cn1)CS2 (centres unmarked) [Example B-6, 4(5)-thiochrom-3-ylmethyl-1H-imidazole, hydrogen chloride salt] | 0.35 | Sedation (0-4) ([3]; ocular dose 0.3%): 0; Sedation (0-4) ([3]; ocular dose 1%): 0; inhibition in vivo at 0.3 % ([4]; 6 h, ocular dose 0.3%): 13.8 ± 2.4%; inhibition in vivo at 1 % ([4]; 6 h): 22.1 ± 6.3%
3 | c1coc(Cc2c[nH]cn2)c1 [Example C-5, 4(5)-furan-2-ylmethyl-1H-imidazole] | 1.1 | Maximum % Decrease From Pretreatment Levels, Heart Rate ([1]; i.v. 500 μg/kg): 7.1 ± 3.9%; Maximum % Decrease From Pretreatment Levels, Mean Arterial Blood Pressure ([1]; i.v. 500 μg/kg): 3.9 ± 2.8%
4 | Cc1ccsc1Cc1cnc[nH]1 [4(5)-(3-methyl-thiophen-2-ylmethyl)-1H-imidazole, reference compound] | 1.4 | Maximum % Decrease From Pretreatment Levels, Heart Rate ([1]; i.v. 50 μg/kg): 23 ± 4%; Maximum % Decrease From Pretreatment Levels, Mean Arterial Blood Pressure ([1]; i.v. 50 μg/kg): 9 ± 3%; Maximum % Decrease From Pretreatment Levels, Heart Rate ([1]; i.v. 167 μg/kg): 32 ± 8%; Maximum % Decrease From Pretreatment Levels, Mean Arterial Blood Pressure ([1]; i.v. 167 μg/kg): 8 ± 6%; effect on heart rate (in words) ([1]; intravenous administration, monkeys): weak effect on heart rate
5 | C1=C(Cc2c[nH]cn2)COc2ccccc21 [Example 1J] | 0.5 | –
6 | O=C1c2cnccc2CCC1Cc1c[nH]cn1 (centres unmarked) [Example P-1, 7-(1H-imidazol-4(5)-ylmethyl)-6,7-dihydro-5H-isoquinoline-8-one, fumarate] | 0.4 | –
7 | COCC1=CCCC(Cc2c[nH]cn2)C1 (centres unmarked) [Example 1E] | 1 | –
8 | Cc1ccc2c(c1)C(=O)C(Cc1c[nH]cn1)CC2 (centres unmarked) [Example B-8a, 2-(1-H-imidazol-4(5)-ylmethyl)-7-methyl-3,4-dihydro-2H-naphthalen-1-one] | 0.4 | –
9 | CC1=C(Cc2c[nH]cn2)COc2ccccc21 [Example 1G] | 0.6 | –
10 | O=C1c2cccnc2CCC1Cc1c[nH]cn1 (centres unmarked) [Example Q-3, 6-(1H-imidazol-4(5)-ylmethyl)-7,8-dihydro-6H-quinolin-5-one] | 0.9 | –
11 | COc1ccc2c(c1)C(=O)C(Cc1c[nH]cn1)CC2 (centres unmarked) [Example B-1a, 2-(1H-imidazol-4(5)-ylmethyl)-7-methoxy-3,4-dihydro-2H-naphthalen-1-one] | 0.6 | –
12 | CC1C=CC(Cc2c[nH]cn2)CC1 (centres unmarked) [Example U-2, 4(5)-(4-methyl-cyclohex-2-enylmethyl)-1H-imidazole, but-2-enedioic acid salt] | 0.6 | –
13 | O=C1c2ccccc2SCC1Cc1c[nH]cn1 (centres unmarked) [Example B-5b, 3-(1H-imidazol-4(5)-ylmethyl)thiochroman-4-one] | 0.5 | –
14 | Cc1ccccc1C1C2CCC(C2)C1/N=C1/NCCO1 [Example D-2, oxazolidin-2-ylidene-(3-o-tolylbicyclo[2.2.1]hept-2-yl) amine] | 0.75 | –
15 | c1cc2c(cn1)CCC(Cc1c[nH]cn1)C2 (centres unmarked) [Example R-3, 6-(1H-imidazol-4(5)-ylmethyl)-5,6,7,8-tetrahydro-isoquinoline, fumarate] | 0.6 | –
16 | c1ccc(C2C3CCC(C3)C2/N=C2/NCCO2)cc1 [Example D-1, oxazolidin-2-ylidene-(3-phenylbicyclo[2.2.1]hept-2-yl) amine] | 0.47 | Sedation (0-4) ([3]; ocular dose 1%): 0; inhibition in vivo at 1 % [4]: 25.6 ± 3.9%
17 | O=C1c2ccccc2CC1Cc1c[nH]cn1 (centres unmarked) [Example B-7b, 2-(1H-imidazol-4(5)-ylmethyl)indan-1-one] | 0.3 | –
18 | CCC1=CCC(Cc2c[nH]cn2)CC1 (centres unmarked) [Example X-2, 4(5)-(4-Ethyl-cyclohex-3-enylmethyl)-1H-imidazole, but-2-enedioic acid salt] | 0.56 | –
19 | CC1=CC(Cc2c[nH]cn2)CCC1 (centres unmarked) [Example T-1, 4(5)-(3-methyl-cyclohex-2-enylmethyl)-1H-imidazole, but-2-enedioic acid salt] | 0.8 | –
20 | C#CC1=CC(Cc2c[nH]cn2)CCC1 (centres unmarked) [Example 1O] | 0.8 | –
21 | c1ccc2c(c1)CC[C@@H](Cc1c[nH]cn1)C2 [Example J-3, (R)-4(5)-(1,2,3,4-tetrahydronaphthalen-2-ylmethyl)-1H-imidazole] | 1 | Sedation (0-4) ([3]; ocular dose 0.03%): 0; Sedation (0-4) ([3]; ocular dose 0.3%): 0; Maximum % Decrease From Pretreatment Levels, Heart Rate ([1]; i.v. 500 μg/kg): +10.6 ± 6.0* %; Maximum % Decrease From Pretreatment Levels, Mean Arterial Blood Pressure ([1]; i.v. 500 μg/kg): +1.0 ± 2.1* %
22 | Cc1ccc(N=C2NCCN2)c2c1NCCO2.Cl [G, imidazolin-2-ylidene-(5-methyl-3,4-dihydro-2H-benzo[1,4]oxazin-8-yl) amine, hydrogen chloride salt] | 0.87 | –
23 | Cc1csc(Cc2c[nH]cn2)c1.Cl [Example C-14, 4(5)-(4-methylthiophen-2-ylmethyl)-1H-imidazole, hydrochloride salt] | 0.7 | –
24 | O=C1c2ccccc2CCC1Cc1c[nH]cn1 (centres unmarked) [Example B-3a] | 0.8 | –
25 | CC1=CCCCC1Cc1cnc[nH]1 (centres unmarked) [Example 1I] | 0.8 | –
